Data reported in paper PMC4793208 (RNA, 2016).

Legend:
S. pombe Dcp1/2 = molecular target: T1, S. pombe Dcp1/2 (Schizosaccharomyces pombe, UniProt O13828); format: biochemical
T1 sequence (O13828 1-243 limits assumed): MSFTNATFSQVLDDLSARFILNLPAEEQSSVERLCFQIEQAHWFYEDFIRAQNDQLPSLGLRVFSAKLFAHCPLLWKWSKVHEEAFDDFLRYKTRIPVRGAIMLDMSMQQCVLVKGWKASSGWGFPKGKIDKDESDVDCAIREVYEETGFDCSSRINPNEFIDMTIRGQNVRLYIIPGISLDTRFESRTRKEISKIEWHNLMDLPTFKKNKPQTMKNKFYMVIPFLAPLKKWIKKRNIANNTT
T1 sequence (Q9P805 1-127 partner): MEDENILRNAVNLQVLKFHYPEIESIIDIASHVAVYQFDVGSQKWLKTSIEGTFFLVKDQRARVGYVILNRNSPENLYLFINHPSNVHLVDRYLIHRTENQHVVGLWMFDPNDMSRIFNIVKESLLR

SpDcp1/2 = molecular target: T2, SpDcp1/2 (Schizosaccharomyces pombe, UniProt O13828); assay: Single-turnover kinetic inhibition assay, SpDcp1/2, 29-nt native-capped RNA; format: biochemical; details: read-out: KI (affinity for the free enzyme), Dcp1/2 complex, subsaturating enzyme
T2 sequence (O13828 1-243): T1 sequence (O13828 1-243 limits assumed)
T2 sequence (Q9P805 1-127 partner): T1 sequence (Q9P805 1-127 partner)

CO[C@H]1[C@@H](O)[C@H]([n+]2cn(C)c3c(=O)[nH]c(N)nc32)O[C@@H]1COP(=O)([O-])OP(=O)(O)OP(=O)(O)OC[C@H]1O[C@@H](n2cnc3c(=O)[nH]c(N)nc32)[C@H](O)[C@@H]1O [Compound 16, m2^7,3′-OGpppG]
inhibitory properties towards Dcp1/2 decapping (in words) (S. pombe Dcp1/2): poor Dcp1/2 inhibitors

C[n+]1cn([C@@H]2O[C@H](COP(=O)(O)OP(=O)([O-])OP(=O)(O)OP(=O)(O)OC[C@H]3O[C@@H](n4cnc5c(=O)[nH]c(N)nc54)[C@H](O)[C@@H]3O)[C@@H](O)[C@H]2O)c2nc(N)nc(O)c21 [Compound 17, m^7GppppG]
inhibitory properties towards Dcp1/2 decapping (in words) (S. pombe Dcp1/2): minimal

Nc1ncnc2c1ncn2[C@@H]1O[C@H](COP(=O)(O)OP(=O)(O)OP(=O)(O)O)[C@@H](O)[C@H]1O [Compound 18, ATP]
inhibitory properties towards Dcp1/2 decapping (in words) (S. pombe Dcp1/2): poor Dcp1/2 inhibitors

Nc1nc2c(ncn2[C@@H]2O[C@H](COP(=O)(O)OP(=O)(O)OP(=O)(O)O)[C@@H](O)[C@H]2O)c(=O)[nH]1 [Compound 19, GTP]
inhibitory properties towards Dcp1/2 decapping (in words) (S. pombe Dcp1/2): poor Dcp1/2 inhibitors

Cn1c[n+]([C@@H]2O[C@H](COP(=O)(O)OP(=O)([O-])OP(=O)(O)OC[C@H]3O[C@@H](n4cnc5c(=O)[nH]c(N)nc54)[C@H](O)[C@@H]3O)[C@@H](O)[C@H]2O)c2nc(N)[nH]c(=O)c21 [m^7GpppG]
Ki (SpDcp1/2): 1.4 ± 0.3 mM
